Experimental data reported in ChEMBL document CHEMBL1201862, “PubChem BioAssay data set” (2004).
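Exposure lasted 48 hours, with cells grown in 96-well plates and compounds tested at five concentrations. Abbreviation: GI50, concentration required for 50% inhibition of growth.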 Active and inactive are the calls of the source. Cut-off read from the data, not from the text of the source: active = GI50 up to about 1.1 µM and inactive = higher.

What was measured:
Experiment in all cases: NCI-60 cell line screen, 48 h
LXFL 529 = test system: LXFL 529
DMS-114 = test system: DMS-114
DMS-273 = test system: DMS-273
M19-MEL = test system: M19-MEL
HOP-18 = test system: HOP-18
DLD-1 = test system: DLD-1
SNB-78 = test system: SNB-78
XF498 = test system: XF498
RXF 631 = test system: RXF 631

Row | SMILES | GI50 (LXFL 529) | GI50 (DMS-114) | GI50 (DMS-273) | GI50 (M19-MEL) | GI50 (HOP-18) | GI50 (DLD-1) | GI50 (SNB-78) | GI50 (XF498) | GI50 (RXF 631)
1 | O=c1c2ccc3cccc4c(=O)cc(c5ccccc15)-c2c34 | 29.6 µM (inactive) | 32 µM (inactive) | > 100 µM (inactive) | 20.3 µM (inactive) | 22.7 µM (inactive) | > 100 µM (inactive) | – | – | –
2 | COc1cc([C@@H]2c3cc4c(cc3[C@@H](NCc3cccc(F)c3)C3COC(=O)[C@@H]32)OCO4)cc(OC)c1O (stereo partly drawn) | 13.4 µM (inactive) | 6.11 µM (inactive) | 2.21 µM (inactive) | – | > 65 µM (inactive) | 9.71 µM (inactive) | 15.3 µM (inactive) | – | –
3 | NC(=O)N/N=C/C(=C/Nc1ccccc1)[N+](=O)[O-] | > 100 µM (inactive) | > 100 µM (inactive) | > 100 µM (inactive) | > 100 µM (inactive) | > 100 µM (inactive) | > 100 µM (inactive) | – | > 100 µM (inactive) | –
4 | CCCC1C(=O)C(CC)Cc2c(OC)ccc(OC)c21 (stereo not drawn) | > 100 µM (inactive) | – | > 100 µM (inactive) | > 100 µM (inactive) | – | > 100 µM (inactive) | > 100 µM (inactive) | > 100 µM (inactive) | > 100 µM (inactive)
5 | CC(=O)Oc1cc(OC(C)=O)c2cc3c(cc2c1OC(C)=O)C(=O)C1(CCCC1)C3=O | – | 16.5 µM (inactive) | 18.2 µM (inactive) | 17.2 µM (inactive) | 22.8 µM (inactive) | 20 µM (inactive) | 22.9 µM (inactive) | 16.4 µM (inactive) | –
6 | CCOC(=O)c1cnc2c(ccc3ncccc32)c1NCCCN(CC)CC | > 100 µM (inactive) | – | 54.1 µM (inactive) | > 100 µM (inactive) | > 100 µM (inactive) | > 100 µM (inactive) | > 100 µM (inactive) | > 100 µM (inactive) | –
7 | OCCOc1ccc(-c2cc(-c3ccccn3)nc(-c3ccccn3)c2)cc1 | 0.376 µM (active) | 0.0552 µM (active) | 0.143 µM (active) | 0.0962 µM (active) | 0.166 µM (active) | – | 2.83 µM (inactive) | 0.0387 µM (active) | 0.465 µM (active)
8 | O=C(O)CCC(NC(=O)c1ccccc1)C(=O)O (stereo not drawn) | > 100 µM (inactive) | > 100 µM (inactive) | > 100 µM (inactive) | – | > 100 µM (inactive) | > 100 µM (inactive) | > 100 µM (inactive) | > 100 µM (inactive) | > 100 µM (inactive)
9 | COc1ccc(C23c4ccc(OC)cc4CC2(c2ccc([N+](=O)[O-])cc2)Cc2cc(OC)ccc23)cc1 (stereo not drawn) | > 54.5 µM (inactive) | > 50 µM (inactive) | > 62.2 µM (inactive) | > 35.2 µM (inactive) | 1.17 µM (inactive) | > 22.8 µM (inactive) | > 100 µM (inactive) | > 100 µM (inactive) | –
10 | COc1nc(NC2OC(COC(C)=O)C(OC(C)=O)C(OC(C)=O)C2OC(C)=O)c2c(OC(C)=O)cc(=O)oc2n1 (stereo not drawn) | > 100 µM (inactive) | > 100 µM (inactive) | > 100 µM (inactive) | > 100 µM (inactive) | > 100 µM (inactive) | > 100 µM (inactive) | > 100 µM (inactive) | > 100 µM (inactive) | –
11 | Cc1cccc(C)c1NC(=O)C1=NC(=S)NC(c2ccccc2)C1c1nc2ccccc2s1 (stereo not drawn) | > 100 µM (inactive) | > 100 µM (inactive) | > 100 µM (inactive) | > 100 µM (inactive) | > 100 µM (inactive) | > 100 µM (inactive) | > 100 µM (inactive) | > 100 µM (inactive) | –
12 | COC(=O)C1C2CC3C(OC(=O)C31)C2OC(=O)[C@](OC)(c1ccccc1)C(F)(F)F (stereo partly drawn) | > 100 µM (inactive) | > 100 µM (inactive) | > 100 µM (inactive) | > 100 µM (inactive) | – | > 100 µM (inactive) | > 100 µM (inactive) | > 100 µM (inactive) | > 100 µM (inactive)
13 | COc1ccc(N2C(=O)C(N3C(=O)C=CC3=O)C2C=O)cc1 (stereo not drawn) | > 100 µM (inactive) | – | > 100 µM (inactive) | > 100 µM (inactive) | > 100 µM (inactive) | > 100 µM (inactive) | > 100 µM (inactive) | – | –
14 | O=C(NC1C2CC3CC(C2)CC1C3)c1ccncn1 (stereo not drawn) | > 100 µM (inactive) | > 100 µM (inactive) | > 100 µM (inactive) | > 100 µM (inactive) | – | > 100 µM (inactive) | > 100 µM (inactive) | – | > 100 µM (inactive)
15 | Cc1ccc(C)c(N2C/C(=N\NC(=O)CC#N)C(c3nc4ccccc4s3)C(=O)C2=O)c1 (stereo not drawn) | > 100 µM (inactive) | > 100 µM (inactive) | > 100 µM (inactive) | > 100 µM (inactive) | > 100 µM (inactive) | > 100 µM (inactive) | > 100 µM (inactive) | > 100 µM (inactive) | –
16 | C[C@@H](CC(O)C1OC1(C)C)[C@@H]1CC[C@]2(C)C3=CCC4C(C)(C)C(O)CC[C@]4(C)C3CCC12C (stereo partly drawn) | 12.3 µM (inactive) | – | 13.3 µM (inactive) | 18.1 µM (inactive) | 20 µM (inactive) | 16.6 µM (inactive) | – | 20.8 µM (inactive) | –
17 | CC(=O)O[C@H]1[C@H](O[C@H]2CC[C@]34C[C@]35CC[C@]3(C)[C@@H]([C@@]6(C)CC[C@@H](C(C)(C)O)O6)[C@@H](O)C[C@@]3(C)[C@@H]5C[C@H](O[C@@H]3O[C@H](CO)[C@@H](O)[C@H](O)[C@H]3O)[C@H]4C2(C)C)OC[C@@H](O)[C@@H]1O | 74.8 µM (inactive) | 66.2 µM (inactive) | 44.6 µM (inactive) | 78.5 µM (inactive) | > 100 µM (inactive) | 71.1 µM (inactive) | > 100 µM (inactive) | > 100 µM (inactive) | > 100 µM (inactive)
18 | O=C(c1ccccc1)c1nc2ccc(Cl)cc2cc1C(Br)Br | 0.216 µM (active) | 1.79 µM (inactive) | 0.286 µM (active) | 0.418 µM (active) | 0.344 µM (active) | 0.203 µM (active) | – | 0.933 µM (active) | –
19 | CCN(CC)CC(=O)N1CCc2c([nH]c3ccccc23)C1c1cccnc1 (stereo not drawn) | > 100 µM (inactive) | > 100 µM (inactive) | > 100 µM (inactive) | > 100 µM (inactive) | > 100 µM (inactive) | > 100 µM (inactive) | > 100 µM (inactive) | > 100 µM (inactive) | > 100 µM (inactive)
20 | CCN(CC)CCCN1CCc2c([nH]c3ccccc23)C1c1cccnc1 (stereo not drawn) | > 100 µM (inactive) | > 100 µM (inactive) | > 100 µM (inactive) | > 100 µM (inactive) | – | > 100 µM (inactive) | > 100 µM (inactive) | 5.22 µM (inactive) | > 100 µM (inactive)
21 | CN(C)CCC(/C=C/c1ccccc1)=N\Nc1ccccc1 | 0.185 µM (active) | 2.07 µM (inactive) | 0.571 µM (active) | 1.57 µM (inactive) | 4.5 µM (inactive) | 0.596 µM (active) | 3.63 µM (inactive) | – | –
22 | COc1ccccc1/C=C1\CCC(CNc2ccc(Cl)cc2)C1=O (stereo not drawn) | 0.226 µM (active) | 4.08 µM (inactive) | 1.74 µM (inactive) | 1.61 µM (inactive) | 16.5 µM (inactive) | 1.31 µM (inactive) | 19.5 µM (inactive) | 27.9 µM (inactive) | –
23 | CC/C(C)=C1\CCC(CN2CCOCC2)C1=O (stereo not drawn) | 11.2 µM (inactive) | 5.26 µM (inactive) | 18.1 µM (inactive) | 14.9 µM (inactive) | 19 µM (inactive) | 11.9 µM (inactive) | 21.8 µM (inactive) | 19.1 µM (inactive) | –
24 | COC(=O)C(CC1=C(O)Nc2ccccc2N1)/C(=N/NC(N)=O)C(=O)Nc1ccccc1C (stereo not drawn) | 69.8 µM (inactive) | 12.9 µM (inactive) | 17 µM (inactive) | 60.1 µM (inactive) | > 100 µM (inactive) | 41.4 µM (inactive) | > 100 µM (inactive) | – | –
25 | N#Cc1c([N+](=O)[O-])cc(C(F)(F)F)cc1[N+](=O)[O-] | 2.07 µM (inactive) | 1.88 µM (inactive) | 4.49 µM (inactive) | 2.54 µM (inactive) | 11.2 µM (inactive) | 3.87 µM (inactive) | 2.07 µM (inactive) | 1.83 µM (inactive) | 9.79 µM (inactive)
26 | Cn1c2cccc3nnc4cccc(c4c32)n1C | > 100 µM (inactive) | > 100 µM (inactive) | > 100 µM (inactive) | > 100 µM (inactive) | – | > 100 µM (inactive) | > 100 µM (inactive) | > 100 µM (inactive) | > 100 µM (inactive)
27 | ON1CCc2c([nH]c3ccccc23)C1c1ccc(Cl)cc1 (stereo not drawn) | 24 µM (inactive) | 19.4 µM (inactive) | 31.3 µM (inactive) | 36.8 µM (inactive) | – | 25.2 µM (inactive) | 33 µM (inactive) | 22.6 µM (inactive) | –
28 | O=C1CCC2(c3ccccc3)Nc3ncccc3N12 (stereo not drawn) | > 100 µM (inactive) | > 100 µM (inactive) | – | > 100 µM (inactive) | – | > 100 µM (inactive) | > 100 µM (inactive) | > 100 µM (inactive) | –
